In US20110124032A1, “Methods and Compositions for Treating Carcinoma Stem Cells” (priority 2008, published 2011):

Assays:
[1] = tested on: “Not Thy1+CD24+” Lin− non-tumorigenic cells (NTCs) from MMTV-Wnt-1 breast tumors; assay: In vitro colony assay (clonogenic survival after ionizing radiation), non-tumorigenic cells; type: cell-based, mouse; conditions: 10 mM tempol for 15 minutes prior to irradiation, drug then removed; FIG. 4c
Description: In order to pharmacologically manipulate ROS levels separately in CSCs and NTCs, we employed in vitro culture conditions that allowed both cell populations to produce colonies upon co-culture with irradiated feeder cells. […] When exposed to 2 Gy, a dose commonly administered clinically during daily treatments of breast cancer patients, 2.0-fold+/−0.2 more CSC-enriched colonies survived than NTC colonies. Next, we attempted to radioprotect NTCs by exposing them to the nitroxide antioxidant tempol.
Cells were analyzed, collected by FACS, and injected into recipient mice as described with minor modifications from mouse mammary glands, human breast cancers, human head and neck cancers, and MMTV-Wnt-1 mouse tumors. […] For intracellular ROS analysis, cells were loaded with 10 μM DCF-DA (Invitrogen), incubated at 37° C. for 30 min, and immediately analyzed by flow cytometry. […] DNA damage was evaluated using the single-cell gel electrophoresis assay under alkaline conditions. […] After reverse transcription, genes were pre-amplified (22 cycles) using the same Taqman primers (Applied Biosystems) used for quantification. Products were analyzed using qPCR DynamicArray microfluidic chips (Fluidigm). […] After 24-48 hrs, the media was replaced with serum-free Epicult B, and colonies counted ˜7 days later. […] Levels of significance were determined by Student's t-tests using (=0.05. […]

[2] = tested on: Thy1+CD24+Lin− CSC-enriched cells from MMTV-Wnt-1 breast tumors; assay: In vitro colony assay (clonogenic survival), CSC-enriched cells; type: cell-based, mouse
Description: Given the overexpression of genes involved in GSH synthesis by CSCs, we wished to assess the sensitivity of these cells to ROS elevation via pharmacologic depletion of GSH. Exposure of Thy1^+CD24^+Lin″ CSC-enriched cells to Buthionine Sulfoximine (BSO), which inhibits glutamate-cysteine ligase, decreased their colony forming ability by approximately three fold (FIG. 4d). Finally, we asked if GSH depletion would radiosensitize CSCs. […] The mechanism leading to low ROS levels in some CSCs appears to be at least partially due to the increased production of free radical scavengers. […] The low ROS subset found in the various stem cell populations may also represent a quiescent subpopulation. […]
Cells were analyzed, collected by FACS, and injected into recipient mice as described with minor modifications from mouse mammary glands, human breast cancers, human head and neck cancers, and MMTV-Wnt-1 mouse tumors. […] For intracellular ROS analysis, cells were loaded with 10 μM DCF-DA (Invitrogen), incubated at 37° C. for 30 min, and immediately analyzed by flow cytometry. […] DNA damage was evaluated using the single-cell gel electrophoresis assay under alkaline conditions. […] After reverse transcription, genes were pre-amplified (22 cycles) using the same Taqman primers (Applied Biosystems) used for quantification. Products were analyzed using qPCR DynamicArray microfluidic chips (Fluidigm). […]

Structure (SMILES) | Clonogenic survival of NTCs after irradiation (radioprotection) [1] | Clonogenic survival after ionizing radiation (radiosensitization) ([2]; 1 mM BSO 24 hour pretreatment, removed prior to irradiation, 3 Gy, FIG. 4e) | Decrease in colony forming ability ([2]; 24 hour pre-treatment with 1 mM BSO, no irradiation, FIG. 4d)
CC1(C)CC(O)CC(C)(C)N1[O] [tempol] | radioprotected NTCs, and resulted in survival levels similar to those seen in the CSC-enriched population |  | 
CCCCS(=N)(=O)CC[C@H](N)C(=O)O (stereo partly drawn) [BSO, L-S,R-Buthionine Sulfoximine] |  | significant radiosensitization | approximately three
